From PubChem BioAssay (NCI)
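Test compounds were applied to cells in 96-well plates for 48 hours at 5 doses. Abbreviation: GI50, concentration required for 50% inhibition of growth. TGI marks complete inhibition of growth.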

Legend:
Assay in all cases: NCI-60 cell line screen, 48 h
786-0 renal = test system: 786-0 renal
A498 renal = test system: A498 renal
A549 NSCLC = test system: A549 NSCLC
ACHN renal = test system: ACHN renal
BT-549 breast = test system: BT-549 breast
CAKI-1 renal = test system: CAKI-1 renal
CCRF-CEM leukemia = test system: CCRF-CEM leukemia
COLO 205 colon = test system: COLO 205 colon
DU-145 prostate = test system: DU-145 prostate
EKVX NSCLC = test system: EKVX NSCLC
HCC-2998 colon = test system: HCC-2998 colon
HCT-116 colon = test system: HCT-116 colon
HCT-15 colon = test system: HCT-15 colon
HL-60(TB) leukemia = test system: HL-60(TB) leukemia
HOP-62 NSCLC = test system: HOP-62 NSCLC
HOP-92 NSCLC = test system: HOP-92 NSCLC
HS 578T breast = test system: HS 578T breast
HT29 colon = test system: HT29 colon
IGROV1 ovarian = test system: IGROV1 ovarian
K-562 leukemia = test system: K-562 leukemia
KM12 colon = test system: KM12 colon
LOX IMVI melanoma = test system: LOX IMVI melanoma
M14 melanoma = test system: M14 melanoma
MALME-3M melanoma = test system: MALME-3M melanoma
MCF7 breast = test system: MCF7 breast
MDA-MB-231 breast = test system: MDA-MB-231 breast
MDA-MB-435 = test system: MDA-MB-435
MOLT-4 leukemia = test system: MOLT-4 leukemia
NCI-H226 lung = test system: NCI-H226 lung
NCI-H23 lung = test system: NCI-H23 lung
NCI-H460 lung = test system: NCI-H460 lung
NCI-H522 lung = test system: NCI-H522 lung
NCI/ADR-RES ovarian = test system: NCI/ADR-RES ovarian
OVCAR-3 ovarian = test system: OVCAR-3 ovarian
OVCAR-4 ovarian = test system: OVCAR-4 ovarian
OVCAR-5 ovarian = test system: OVCAR-5 ovarian
OVCAR-8 ovarian = test system: OVCAR-8 ovarian
PC-3 prostate = test system: PC-3 prostate
RPMI-8226 leukemia = test system: RPMI-8226 leukemia
RXF 393 renal = test system: RXF 393 renal
SF-268 CNS = test system: SF-268 CNS
SF-295 CNS = test system: SF-295 CNS
SF-539 CNS = test system: SF-539 CNS
SK-MEL-2 melanoma = test system: SK-MEL-2 melanoma
SK-MEL-28 melanoma = test system: SK-MEL-28 melanoma
SK-MEL-5 melanoma = test system: SK-MEL-5 melanoma
SK-OV-3 ovarian = test system: SK-OV-3 ovarian
SN12C renal = test system: SN12C renal
SNB-19 CNS = test system: SNB-19 CNS
SNB-75 CNS = test system: SNB-75 CNS
SR leukemia = test system: SR leukemia
SW-620 colon = test system: SW-620 colon
T-47D breast = test system: T-47D breast
TK-10 renal = test system: TK-10 renal
U251 CNS = test system: U251 CNS
UACC-257 melanoma = test system: UACC-257 melanoma
UACC-62 melanoma = test system: UACC-62 melanoma
UO-31 renal = test system: UO-31 renal

CC(=C(c1ccc(OCCN2CCCC2)cc1)c1ccc(OCCN2CCCC2)cc1)c1ccc(Cl)cc1 gave a GI50 (786-0 renal) of 2110 nM, a TGI (786-0 renal) of 4520 nM and a GI50 (A498 renal) of 2450 nM. It also gave a TGI (A498 renal) of 4850 nM, a GI50 (A549 NSCLC) of 2740 nM and a TGI (A549 NSCLC) of 5740 nM. It also gave a GI50 (ACHN renal) of 2530 nM, a TGI (ACHN renal) of 4780 nM and a GI50 (BT-549 breast) of 2630 nM. It also gave a TGI (BT-549 breast) of 5120 nM, a GI50 (CAKI-1 renal) of 2500 nM and a TGI (CAKI-1 renal) of 4850 nM. The GI50 (CCRF-CEM leukemia) was 1400 nM, the TGI (CCRF-CEM leukemia) was 4720 nM and the GI50 (COLO 205 colon) was 2730 nM. It also gave a TGI (COLO 205 colon) of 6140 nM, a GI50 (DU-145 prostate) of 2600 nM and a TGI (DU-145 prostate) of 5140 nM. It also gave a GI50 (EKVX NSCLC) of 2270 nM, a TGI (EKVX NSCLC) of 4650 nM and a GI50 (HCC-2998 colon) of 2700 nM. For the same molecule, the TGI (HCC-2998 colon) was 5320 nM, the GI50 (HCT-116 colon) was 1150 nM and the TGI (HCT-116 colon) was 3580 nM. It also gave a GI50 (HCT-15 colon) of 655 nM, a TGI (HCT-15 colon) of 2530 nM and a GI50 (HL-60(TB) leukemia) of 3010 nM. For the same molecule, the TGI (HL-60(TB) leukemia) was 6340 nM, the GI50 (HOP-62 NSCLC) was 2930 nM and the TGI (HOP-62 NSCLC) was 5970 nM. The GI50 (HOP-92 NSCLC) was 1490 nM, the TGI (HOP-92 NSCLC) was 3920 nM and the GI50 (HS 578T breast) was 2680 nM. For the same molecule, the TGI (HS 578T breast) was 6590 nM, the GI50 (HT29 colon) was 660 nM and the TGI (HT29 colon) was 2520 nM. For the same molecule, the GI50 (IGROV1 ovarian) was 2560 nM, the TGI (IGROV1 ovarian) was 5110 nM and the GI50 (K-562 leukemia) was 498 nM. The TGI (K-562 leukemia) was 1750 nM, the GI50 (KM12 colon) was 2660 nM and the TGI (KM12 colon) was 5630 nM. It also gave a GI50 (LOX IMVI melanoma) of 516 nM, a TGI (LOX IMVI melanoma) of 2620 nM and a GI50 (M14 melanoma) of 2130 nM. The TGI (M14 melanoma) was 4590 nM, the GI50 (MALME-3M melanoma) was 2630 nM and the TGI (MALME-3M melanoma) was 5180 nM. For the same molecule, the GI50 (MCF7 breast) was 409 nM, the TGI (MCF7 breast) was 2730 nM and the GI50 (MDA-MB-231 breast) was 2370 nM. It also gave a TGI (MDA-MB-231 breast) of 4950 nM, a GI50 (MDA-MB-435) of 2620 nM and a TGI (MDA-MB-435) of 5030 nM. The GI50 (MOLT-4 leukemia) was 1380 nM, the TGI (MOLT-4 leukemia) was 4390 nM and the GI50 (NCI-H226 lung) was 3040 nM. The TGI (NCI-H226 lung) was 6180 nM, the GI50 (NCI-H23 lung) was 2690 nM and the TGI (NCI-H23 lung) was 5200 nM. It also gave a GI50 (NCI-H460 lung) of 2960 nM, a TGI (NCI-H460 lung) of 5580 nM and a GI50 (NCI-H522 lung) of 2960 nM. For the same molecule, the TGI (NCI-H522 lung) was 5990 nM, the GI50 (NCI/ADR-RES ovarian) was 2810 nM and the TGI (NCI/ADR-RES ovarian) was 5720 nM. The GI50 (OVCAR-3 ovarian) was 2640 nM, the TGI (OVCAR-3 ovarian) was 5300 nM and the GI50 (OVCAR-4 ovarian) was 2650 nM. For the same molecule, the TGI (OVCAR-4 ovarian) was 5390 nM, the GI50 (OVCAR-5 ovarian) was 2560 nM and the TGI (OVCAR-5 ovarian) was 4900 nM. For the same molecule, the GI50 (OVCAR-8 ovarian) was 3250 nM, the TGI (OVCAR-8 ovarian) was 7160 nM and the GI50 (PC-3 prostate) was 2290 nM. The TGI (PC-3 prostate) was 4790 nM, the GI50 (RPMI-8226 leukemia) was 2570 nM and the TGI (RPMI-8226 leukemia) was 6740 nM. For the same molecule, the GI50 (RXF 393 renal) was 2010 nM, the TGI (RXF 393 renal) was 4200 nM and the GI50 (SF-268 CNS) was 2700 nM. It also gave a TGI (SF-268 CNS) of 5460 nM, a GI50 (SF-295 CNS) of 2690 nM and a TGI (SF-295 CNS) of 5140 nM. For the same molecule, the GI50 (SF-539 CNS) was 2340 nM, the TGI (SF-539 CNS) was 4670 nM and the GI50 (SK-MEL-2 melanoma) was 3100 nM. For the same molecule, the TGI (SK-MEL-2 melanoma) was 6220 nM, the GI50 (SK-MEL-28 melanoma) was 2640 nM and the TGI (SK-MEL-28 melanoma) was 5100 nM. The GI50 (SK-MEL-5 melanoma) was 2740 nM, the TGI (SK-MEL-5 melanoma) was 5210 nM and the GI50 (SK-OV-3 ovarian) was 2900 nM. The TGI (SK-OV-3 ovarian) was 5490 nM, the GI50 (SN12C renal) was 2500 nM and the TGI (SN12C renal) was 4980 nM. For the same molecule, the GI50 (SNB-19 CNS) was 2790 nM, the TGI (SNB-19 CNS) was 5300 nM and the GI50 (SNB-75 CNS) was 6850 nM. It also gave a TGI (SNB-75 CNS) of 16700 nM, a GI50 (SR leukemia) of 745 nM and a TGI (SR leukemia) of 16700 nM. The GI50 (SW-620 colon) was 2160 nM, the TGI (SW-620 colon) was 4540 nM and the GI50 (T-47D breast) was 1940 nM. For the same molecule, the TGI (T-47D breast) was 5020 nM, the GI50 (TK-10 renal) was 2580 nM and the TGI (TK-10 renal) was 5210 nM. For the same molecule, the GI50 (U251 CNS) was 2200 nM, the TGI (U251 CNS) was 4880 nM and the GI50 (UACC-257 melanoma) was 2970 nM. It also gave a TGI (UACC-257 melanoma) of 5850 nM, a GI50 (UACC-62 melanoma) of 2850 nM and a TGI (UACC-62 melanoma) of 5520 nM. It also gave a GI50 (UO-31 renal) of 2240 nM and a TGI (UO-31 renal) of 4460 nM.
